# From patent publication EP0556720B1, “5-Aminoflavone derivatives” (KYOWA HAKKO KOGYO CO., LTD., priority 1992, dated 1993)
# Counter-ions that a name gives are not always drawn.
# Key:
# MCF-7 cells = experiment: Human mammary cancer (MCF-7) growth inhibition test, neutral red staining; format: cell-based; settings: MCF7, medium with 10^-8M estradiol, 72 hours culture with sample
# Method: Human mammary cancer (MCF-7) growth inhibition test;
# Each 0.1 ml of MCF-7 cells which had been prepared to 5 x 10^4/ml using a medium (referred to as Medium B hereinafter) prepared by adding 10% bovine fetal serum, 10^-8M estradiol (manufactured by Sigma), 100 units/ml penicillin and 100 µg/ml streptomycin to medium RPMI1640 was distributed in each well of 96 well-microtiter plate. The plate was cultured at 37 °C for 20 hours in a CO2 gas incubator, each 0.05 ml of samples (test compounds) which had been appropriately diluted with Medium B was added thereto and the mixture was cultured at 37 °C for 72 hours in a CO2 gas incubator. Supernatant was removed, each 0.1 ml of Medium B containing 0.02% neutral red was added to the residue, the mixture was cultured at 37 °C for 1 hour in a CO2 gas incubator and the cells were stained. IC50 was calculated according to the same manner as that in Test 2.
# HeLaS3 cells = experiment: Human uterine cervix carcinoma (HeLaS3) growth inhibition test, neutral red staining; format: cell-based; settings: HeLa S3, 72 hours culture with sample, absorbance at 550 nm
# Method: Human uterine cervix carcinoma (HeLaS3) growth inhibition test;
# Each 0.1 ml of HeLaS3 cells which had been prepared to 3 x 10^4/ml using a medium (referred to as Medium A hereinafter) consisted of MEM medium, 2 mM glutamine and 10% bovine fetal serum was distributed in each well of 96 well-microtiter plate. The plate was cultured at 37 °C for 20 hours in a CO2 gas incubator, each 0.05 ml of samples (test compounds) which had been appropriately diluted with Medium A was added thereto and the mixture was cultured at 37 °C for 72 hours in a CO2 gas incubator. Supernatant was removed, each 0.1 ml of Medium A containing 0.02% neutral red was added to the residue, the mixture was cultured at 37 °C for 1 hour in a CO2 gas incubator and the cells were stained. Supernatant was removed and the residue was washed once with saline. Then, the pigment was extracted with 0.001N hydrochloric acid/30% ethanol and the absorbance at 550 nm was measured with a microplatereader.
Structure (SMILES),IC50 (MCF-7 cells) [µM],IC50 (HeLaS3 cells) [µM]
"Nc1ccc(-c2cc(=O)c3c(N)c(F)ccc3o2)cc1 [Compound 8, 5-Amino-2-(4-aminophenyl)-6-fluoro-4H-1-benzopyran-4-one]",0.14,
"NCCCNc1ccc(-c2cc(=O)c3c(N)c(F)cc(F)c3o2)cc1F [Compound 30, 5-Amino-2-[4-(3-aminopropylamino)-3-fluorophenyl]-6,8-difluoro-4H-1-benzopyran-4-one]",0.039,14
"Nc1ccc(-c2cc(=O)c3c(N)c(Cl)cc(Cl)c3o2)cc1 [Compound 3, 5-Amino-2-(4-aminophenyl)-6,8-dichloro-4H-1-benzopyran-4-one]",22,33
"Nc1c(F)cc(F)c2oc(-c3ccc(NCCN4CCCC4)c(F)c3)cc(=O)c12 [Compound 41, 5-Amino-6,8-difluoro-2-[3-fluoro-4-[2-(pyrrolidin-1-yl)ethylamino]phenyl]-4H-1-benzopyran-4-one]",,5
"CN(C)c1ccc(-c2cc(=O)c3c(N)c(F)cc(F)c3o2)cc1F [Compound 38, 5-Amino-6,8-difluoro-2-[4-(N,N-dimethylamino)-3-fluorophenyl]-4H-1-benzopyran-4-one]",,12
"Nc1c(Cl)cc(-c2cc(=O)c3c(N)c(F)cc(F)c3o2)cc1Cl [Compound 35, 5-Amino-2-(4-amino-3,5-dichlorophenyl)-6,8-difluoro-4H-1-benzopyran-4-one]",0.17,
"Nc1ccc(-c2cc(=O)c3c(N)ccc(F)c3o2)cc1 [Compound 10, 5-Amino-2-(4-aminophenyl)-8-fluoro-4H-1-benzopyran-4-one]",0.25,21
"CN(C)CCNc1ccc(-c2cc(=O)c3c(N)c(F)cc(F)c3o2)cc1F [Compound 40, 5-Amino-2-[4-[2-(N',N'-dimethylamino)ethylamino]-3-fluorophenyl]-6,8-difluoro-4H-1-benzopyran-4-one]",0.23,
"Nc1ccc(-c2cc(=O)c3c(N)ccc(Cl)c3o2)cc1 [Compound 2, 5-Amino-2-(4-aminophenyl)-8-chloro-4H-1-benzopyran-4-one]",0.37,3.2
"CN(C)CCCCCCNc1ccc(-c2cc(=O)c3c(N)c(F)cc(F)c3o2)cc1F [Compound 53, 5-Amino-6,8-difluoro-2-[4-[6-(N',N'-dimethylamino)hexylamino]-3-fluorophenyl]-4H-1-benzopyran-4-one]",6.2,6.8
"Nc1ccc(-c2cc(=O)c3c(N)c(Br)cc(Br)c3o2)cc1 [Compound 6, 5-Amino-2-(4-aminophenyl)-6,8-dibromo-4H-1-benzopyran-4-one]",27,
"Nc1c(F)cc(F)c2oc(-c3ccc(NCCN4CCOCC4)c(F)c3)cc(=O)c12 [Compound 42, 5-Amino-6,8-difluoro-2-[3-fluoro-4-(2-morpholinoethylamino)phenyl]-4H-1-benzopyran-4-one]",6.1,
"CCOC(=O)CNc1ccc(-c2cc(=O)c3c(N)c(F)cc(F)c3o2)cc1F [Compound 44, 5-Amino-6,8-difluoro-2-(4-ethyoxycarbonylmethylamino-3-fluorophenyl)-4H-1-benzopyran-4-one]",0.36,
"Nc1c(Br)cc(-c2cc(=O)c3c(N)c(F)cc(F)c3o2)cc1Br [Compound 36, 5-Amino-2-(4-amino-3,5-dibromophenyl)-6,8-difluoro-4H-1-benzopyran-4-one]",0.61,
"Nc1c(F)cc(F)c2oc(-c3ccc(NCCCCCCn4ccnc4)c(F)c3)cc(=O)c12 [Compound 52, 5-Amino-6,8-difluoro-2-[3-fluoro-4-[6-(imidazol-1-yl)hexylamino]phenyl]-4H-1-benzopyran-4-one]",2,4.4
"COCCCNc1ccc(-c2cc(=O)c3c(N)c(F)cc(F)c3o2)cc1F [Compound 46, 5-Amino-6,8-difluoro-2-[3-fluoro-4-(3-methoxypropylamino)phenyl]-4H-1-benzopyran-4-one]",0.11,
"Nc1ccc(-c2cc(=O)c3c(N)ccc(Br)c3o2)cc1 [Compound 5, 5-Amino-2-(4-aminophenyl)-8-bromo-4H-1-benzopyran-4-one]",,6.1

# Continued, values first:
IC50 (MCF-7 cells) [µM],IC50 (HeLaS3 cells) [µM],Structure (SMILES)
5.9,6.1,"Nc1c(F)cc(F)c2oc(-c3ccc(NCCCCCCN4CCCC4)c(F)c3)cc(=O)c12 [Compound 54, 5-Amino-6,8-difluoro-2-[3-fluoro-4-[6-(pyrrolidin-1-yl)hexylamino]phenyl]-4H-1-benzopyran-4-one]"
,7.1,"CN(C)CCCCCCNc1c(F)cc(F)c2oc(-c3ccc(N(C)C)c(F)c3)cc(=O)c12 [Compound 62, 6,8-Difluoro-2-[4-(N,N-dimethyl)amino-3-fluorophenyl]-5-[6-(N',N'-dimethylamino)hexylamino]-4H-1-benzopyran-4-one]"
,12,"CC(C)CCCNc1c(F)cc(F)c2oc(-c3ccc(N)c(F)c3)cc(=O)c12 [Compound 71, 2-(4-Amino-3-fluorophenyl)-6,8-difluoro-5-(4-methylpentylamino)-4H-1-benzopyran-4-one]"
0.63,,"COCCCCCCNc1c(F)cc(F)c2oc(-c3ccc(N(C)C)c(F)c3)cc(=O)c12 [Compound 61, 6,8-Difluoro-2-[4-(N,N-dimethyl)amino-3-fluorophenyl]-5-(6-methoxyhexylamino)-4H-1-benzopyran-4-one]"
,3,"CN(C)c1ccc(-c2cc(=O)c3c(NCCCCCCn4ccnc4)c(F)cc(F)c3o2)cc1F [Compound 64, 6,8-Difluoro-2-[4-(N,N-dimethyl)amino-3-fluorophenyl]-5-[6-(imidazol-1-yl)hexylamino]-4H-1-benzopyran-4-one]"
0.34,,"CN(C)c1ccc(-c2cc(=O)c3c(NCCCCCCO)c(F)cc(F)c3o2)cc1F [Compound 60, 6,8-Difluoro-2-[4-(N,N-dimethyl)amino-3-fluorophenyl]-5-(6-hydroxyhexylamino)-4H-l-benzopyran-4-one]"
,9.4,"CCCCCCNc1c(F)cc(F)c2oc(-c3ccc(N)c(F)c3)cc(=O)c12 [Compound 67, 2-(4-Amino-3-fluorophenyl)-6,8-difluoro-5-hexylamino-4H-1-benzopyran-4-one]"
,16,"CCCCCCNc1c(F)cc(F)c2oc(-c3ccc(NCC(=O)O)c(F)c3)cc(=O)c12 [Compound 75, 2-(4-Carboxymethylamino-3-fluorophenyl)-6,8-difluoro-5-hexylamino-4H-1-benzopyran-4-one]"
0.34,,"CCCCCCNc1c(F)cc(F)c2oc(-c3ccc(N(C)C)c(F)c3)cc(=O)c12 [Compound 58, 6,8-Difluoro-2-[4-(N,N-dimethyl)amino-3-fluorophenyl]-5-hexylamino-4H-1-benzopyran-4-one]"
0.73,,"Nc1c(F)cc(F)c2oc(-c3ccc(NCCCCCC(=O)O)c(F)c3)cc(=O)c12 [Compound 57, Sodium salt of 5-amino-2-[4-(5-carboxypentylamino)-3-fluorophenyl]-6,8-difluoro-4H-1-benzopyran-4-one]"
,7,"CN(C)c1ccc(-c2cc(=O)c3c(NCCCCCCN)c(F)cc(F)c3o2)cc1F [Compound 65, 5-(6-Aminohexylamino)-6,8-difluoro-2-[4-(N,N-dimethyl)amino-3-fluorophenyl]-4H-1-benzopyran-4-one]"
,7.5,"CCCCCNc1c(F)cc(F)c2oc(-c3ccc(NCCCN)c(F)c3)cc(=O)c12 [Compound 79, 2-[4-(3-Aminopropylamino)-3-fluorophenyl]-6,8-difluoro-5-pentylamino-4H-1-benzopyran-4-one]"
6,,"CC(Cl)CCCCNc1c(F)cc(F)c2oc(-c3ccc(N)c(F)c3)cc(=O)c12 (centres unmarked) [Compound 69, 2-(4-Amino-3-fluorophenyl)-5-(5-chlorohexylamino)-6,8-difluoro-4H-1-benzopyran-4-one]"
,11,"Nc1c(F)cc(F)c2oc(-c3ccc(NCCCCCCN4CCOCC4)c(F)c3)cc(=O)c12 [Compound 55, 5-Amino-6,8-difluoro-2-[3-fluoro-4-(6-morpholinohexylamino)phenyl]-4H-1-benzopyran-4-one]"
,7,"CN(C)c1ccc(-c2cc(=O)c3c(NCCCCCCN4CCCC4)c(F)cc(F)c3o2)cc1F [Compound 63, 6,8-Difluoro-2-[4-(N,N-dimethyl)amino-3-fluorophenyl]-5-[6-(pyrrolidin-1-yl)hexylamino]-4H-1-benzopyran-4-one]"
0.91,,"CCOC(=O)CCCCCNc1ccc(-c2cc(=O)c3c(N)c(F)cc(F)c3o2)cc1F [Compound 56, 5-Amino-6,8-difluoro-2-[4-(5-ethoxycarbonylpentylamino)-3-fluorophenyl]-4H-1-benzopyran-4-one]"
,11,"C=CCCCCNc1c(F)cc(F)c2oc(-c3ccc(NC)c(F)c3)cc(=O)c12 [Compound 77, 6,8-Difluoro-2-(3-fluoro-4-methylaminophenyl)-5-(5-hexenylamino)-4H-1-benzopyran-4-one]"
